# Reference: patent US8158646B2, “Antifungal and antiparasitic indoloquinoline derivates” (Florida Agricultural and Mechanical University, priority 2006, dated 2012)
# Read-outs that look alike come from different tables or passages of the source.
# How the values were obtained:
# Vero cells = test: Cytotoxicity to mammalian cells (Vero); format: cell-based
# Experimental: (§1) All organisms were obtained from the American Type Culture Collection (Manassas, Va.). Susceptibility testing was performed using a modified version of the NCCLS methods [a) National Committee for Clinical Laboratory Standards. 2000. Methods for dilution antimicrobial susceptibility tests for bacteria that grow aerobically. M7-A5. […] Approved standard M27-A. National Committee for Clinical Laboratory Standards, Wayne, Pa. c) National Committee for Clinical Laboratory Standards. 2000. Susceptibility testing of mycobacteria, nocardia, and other aerobic actinomycetes, 2nd ed. Tentative standard M24- T2. […] Briefly, samples (dissolved in DMSO) were serially diluted by using 0.9% saline and transferred in duplicate to 96-well microplates. Microbial inocula were prepared after comparison of the absorbance (at 630 nm) of cell suspensions to the 0.5 McFarland standard and dilution of the suspensions in broth (Sabouraud dextrose and cation-adjusted Mueller-Hinton broth [Difco] for the fungi and bacteria, respectively, and 5% Alamar blue [BioSource international] in Middlebrook 7H9 broth with oleic acid-albumin-dextrose-catalase enrichment for M intracellulare) to afford recommended inoculum sizes. Microbial inocula were added to the samples to achieve a final volume of 200 μl and final sample concentrations starting with 100 μg/ml. Growth, solvent, and medium controls were included on each test plate. […] Antimalarial and cytotoxicity testing were conducted in a similar manner as previously reported [a) Muhammad, 1.; Bedir, E.; Khan, S. I.; Tekwani, B. L.; Khan, I. A.; Takamatsu, S.; Pelletier, 1.; Walker, L. A. J Nat Prod.
# C. krusei ATCC 6258 = test: Antimicrobial susceptibility testing, Ck; format: cell-based, Candida krusei; details: Candida krusei
# Experimental: (§2) Compounds were evaluated in vitro against a panel of microorganisms, including Candida albicans ATCC 90028 (Ca), C. krusei ATCC 6258 (Ck), Cryptococcus neoformans ATCC 90113 (Cn), Staphylococcus aureus ATCC 29213 (Sa), methicillin-resistant S. aureus ATCC 43300 (MRSA), Pseudomonas aeruginosa ATCC 27853 (Pa), Aspergilllus fumigatus ATCC 90906 (Aj), and Mycobacterium intracellulare ATCC 23068 (Mi) as previously reported [Guoyi, M.; Khan, S.; Jacob, M. R; Tekwani, B. L.; Li, Z.; Pasco, D. S.; Walker, L. A.; Khan, 1. A.; Antimicrob Agents Chemother, 2004, 48, 4450-4452]. All organisms were obtained from the American Type Culture Collection (Manassas, Va.). Susceptibility testing was performed using a modified version of the NCCLS methods [a) National Committee for Clinical Laboratory Standards. 2000. Methods for dilution antimicrobial susceptibility tests for bacteria that grow aerobically. M7-A5. National Committee for Clinical Laboratory Standards, Wayne, Pa. b) National Committee for Clinical Laboratory Standards, 1997, Reference method for broth dilution antifungal susceptibility testing of yeasts. Approved standard M27-A. National Committee for Clinical Laboratory Standards, Wayne, Pa. c) National Committee for Clinical Laboratory Standards. 2000. Susceptibility testing of mycobacteria, nocardia, and other aerobic actinomycetes, 2nd ed. Tentative standard M24- T2. […] Microbial inocula were prepared after comparison of the absorbance (at 630 nm) of cell suspensions to the 0.5 McFarland standard and dilution of the suspensions in broth (Sabouraud dextrose and cation-adjusted Mueller-Hinton broth [Difco] for the fungi and bacteria, respectively, and 5% Alamar blue [BioSource international] in Middlebrook 7H9 broth with oleic acid-albumin-dextrose-catalase enrichment for M intracellulare) to afford recommended inoculum sizes. […] The plates were read at either 630 nm or excitation and emission wavelengths of 544 and 590 nm (for Mi) prior to and after incubation. […]
# [1] = test system: Aspergillus fumigatus ATCC 90906; test: Antimicrobial susceptibility testing, Af; format: cell-based
# Experimental: (§3) Compounds were evaluated in vitro against a panel of microorganisms, including Candida albicans ATCC 90028 (Ca), C. krusei ATCC 6258 (Ck), Cryptococcus neoformans ATCC 90113 (Cn), Staphylococcus aureus ATCC 29213 (Sa), methicillin-resistant S. aureus ATCC 43300 (MRSA), Pseudomonas aeruginosa ATCC 27853 (Pa), Aspergilllus fumigatus ATCC 90906 (Aj), and Mycobacterium intracellulare ATCC 23068 (Mi) as previously reported [Guoyi, M.; Khan, S.; Jacob, M. R; Tekwani, B. L.; Li, Z.; Pasco, D. S.; Walker, L. A.; Khan, 1. A.; Antimicrob Agents Chemother, 2004, 48, 4450-4452]. All organisms were obtained from the American Type Culture Collection (Manassas, Va.). Susceptibility testing was performed using a modified version of the NCCLS methods [a) National Committee for Clinical Laboratory Standards. 2000. Methods for dilution antimicrobial susceptibility tests for bacteria that grow aerobically. M7-A5. National Committee for Clinical Laboratory Standards, Wayne, Pa. b) National Committee for Clinical Laboratory Standards, 1997, Reference method for broth dilution antifungal susceptibility testing of yeasts. Approved standard M27-A. National Committee for Clinical Laboratory Standards, Wayne, Pa. c) National Committee for Clinical Laboratory Standards. 2000. Susceptibility testing of mycobacteria, nocardia, and other aerobic actinomycetes, 2nd ed. Tentative standard M24- T2. National Committee for Clinical Laboratory Standards, Wayne, Pa.] for all organisms except for M intracellulare, for which the modified Alamar blue procedure described by Franzblau et al [1998. J Clin Microbiol, 36, 362-366] was followed. Briefly, samples (dissolved in DMSO) were serially diluted by using 0.9% saline and transferred in duplicate to 96-well microplates. Microbial inocula were prepared after comparison of the absorbance (at 630 nm) of cell suspensions to the 0.5 McFarland standard and dilution of the suspensions in broth (Sabouraud dextrose and cation-adjusted Mueller-Hinton broth [Difco] for the fungi and bacteria, respectively, and 5% Alamar blue [BioSource international] in Middlebrook 7H9 broth with oleic acid-albumin-dextrose-catalase enrichment for M intracellulare) to afford recommended inoculum sizes. Microbial inocula were added to the samples to achieve a final volume of 200 μl and final sample concentrations starting with 100 μg/ml. Growth, solvent, and medium controls were included on each test plate. The plates were read at either 630 nm or excitation and emission wavelengths of 544 and 590 nm (for Mi) prior to and after incubation. Percent growth was calculated and plotted with the concentration tested to afford the concentration that inhibits 50% of growth (IC50). […]
# [2] = test system: Cryptococcus neoformans ATCC 90113; test: Antifungal susceptibility testing (modified NCCLS), Cn; format: cell-based; details: NA not defined in Table 1
# Experimental: (§4) Compounds were evaluated in vitro against a panel of microorganisms, including Candida albicans ATCC 90028 (Ca), C. krusei ATCC 6258 (Ck), Cryptococcus neoformans ATCC 90113 (Cn), Staphylococcus aureus ATCC 29213 (Sa), methicillin-resistant S. aureus ATCC 43300 (MRSA), Pseudomonas aeruginosa ATCC 27853 (Pa), Aspergilllus fumigatus ATCC 90906 (Aj), and Mycobacterium intracellulare ATCC 23068 (Mi) as previously reported [Guoyi, M.; Khan, S.; Jacob, M. R; Tekwani, B. L.; Li, Z.; Pasco, D. S.; Walker, L. A.; Khan, 1. A.; Antimicrob Agents Chemother, 2004, 48, 4450-4452]. All organisms were obtained from the American Type Culture Collection (Manassas, Va.). Susceptibility testing was performed using a modified version of the NCCLS methods [a) National Committee for Clinical Laboratory Standards. 2000. Methods for dilution antimicrobial susceptibility tests for bacteria that grow aerobically. M7-A5. National Committee for Clinical Laboratory Standards, Wayne, Pa. b) National Committee for Clinical Laboratory Standards, 1997, Reference method for broth dilution antifungal susceptibility testing of yeasts. Approved standard M27-A. National Committee for Clinical Laboratory Standards, Wayne, Pa. c) National Committee for Clinical Laboratory Standards. 2000. Susceptibility testing of mycobacteria, nocardia, and other aerobic actinomycetes, 2nd ed. Tentative standard M24- T2. National Committee for Clinical Laboratory Standards, Wayne, Pa.] for all organisms except for M intracellulare, for which the modified Alamar blue procedure described by Franzblau et al [1998. J Clin Microbiol, 36, 362-366] was followed. Briefly, samples (dissolved in DMSO) were serially diluted by using 0.9% saline and transferred in duplicate to 96-well microplates. Microbial inocula were prepared after comparison of the absorbance (at 630 nm) of cell suspensions to the 0.5 McFarland standard and dilution of the suspensions in broth (Sabouraud dextrose and cation-adjusted Mueller-Hinton broth [Difco] for the fungi and bacteria, respectively, and 5% Alamar blue [BioSource international] in Middlebrook 7H9 broth with oleic acid-albumin-dextrose-catalase enrichment for M intracellulare) to afford recommended inoculum sizes. Microbial inocula were added to the samples to achieve a final volume of 200 μl and final sample concentrations starting with 100 μg/ml. Growth, solvent, and medium controls were included on each test plate. The plates were read at either 630 nm or excitation and emission wavelengths of 544 and 590 nm (for Mi) prior to and after incubation. Percent growth was calculated and plotted with the concentration tested to afford the concentration that inhibits 50% of growth (IC50). Antimalarial and cytotoxicity testing were conducted in a similar manner as previously reported [a) Muhammad, 1.; Bedir, E.; Khan, S. I.; Tekwani, B. L.; Khan, I. A.; Takamatsu, S.; Pelletier, 1.; Walker, L. A. J Nat Prod. 2004, 67, 772-7. b) Muhammad, 1.; Dunbar, D. C.; Khan, S. 1.; Tekwani, B. L.; Bedir, E.; Takamatsu, S.; Ferreira, D, Walker L A., J Nat Prod. 2003, 66, 962-7].
# [3] = test system: Candida albicans ATCC 90028; test: Antifungal susceptibility testing (modified NCCLS), Ca; format: cell-based; details: NA not defined in Table 1
# Experimental: as §4
# [4] = test system: Plasmodium falciparum W2 Clone; test: Antimalarial testing, W2 clone; format: cell-based; details: Plasmodium falciparum
# Experimental: as §4
# [5] = test system: Plasmodium falciparum D6 Clone; test: Antimalarial testing, D6 clone; format: cell-based; details: Plasmodium falciparum
# Experimental: as §1
# [6] = test system: methicillin-resistant S. aureus ATCC 43300; test: Antimicrobial susceptibility testing, MRSA; format: cell-based, Staphylococcus aureus; details: Methicillin-Resistant Staphylococcus aureus; read-out: IC50 MRSA
# Experimental: as §3
# [7] = test system: Mycobacterium intracellulare ATCC 23068; test: Modified Alamar blue procedure, Mi; format: cell-based; details: ATCC23068, read-out: IC50 Mi
# Experimental: as §3
# [8] = test system: Pseudomonas aeruginosa ATCC 27853; test: Antimicrobial susceptibility testing, Pa; format: cell-based; details: ATCC27853, NA = Not active up to 20 μg/ml
# Experimental: as §2, with “2000.” for “2000. Methods for dilution antimicrobial susceptibility tests for bacteria that grow aerobically. M7-A5. National Committee for Clinical Laboratory Standards, Wayne, Pa. b) National Committee for Clinical Laboratory Standards, 1997, Reference method for broth dilution antifungal susceptibility testing of yeasts. Approved standard M27-A. National Committee for Clinical Laboratory Standards, Wayne, Pa. c) National Committee for Clinical Laboratory Standards. 2000. Susceptibility testing of mycobacteria, nocardia, and other aerobic actinomycetes, 2nd ed. Tentative standard M24- T2.”
# [9] = test system: Staphylococcus aureus ATCC 29213; test: Antimicrobial susceptibility testing, Sa; format: cell-based; details: ATCC29213
# Experimental: as §2, with “2000.” for “2000. Methods for dilution antimicrobial susceptibility tests for bacteria that grow aerobically. M7-A5. National Committee for Clinical Laboratory Standards, Wayne, Pa. b) National Committee for Clinical Laboratory Standards, 1997, Reference method for broth dilution antifungal susceptibility testing of yeasts. Approved standard M27-A. National Committee for Clinical Laboratory Standards, Wayne, Pa. c) National Committee for Clinical Laboratory Standards. 2000. Susceptibility testing of mycobacteria, nocardia, and other aerobic actinomycetes, 2nd ed. Tentative standard M24- T2.”
smiles,measurement,setting,value
c1ccc2c(c1)cc1[nH]c3ccccc3c1[n+]2CCCCC[n+]1c2ccccc2cc2[nH]c3ccccc3c21 (hydrate or solvate) [Compound 10],melting point,,256 to 258 °C
C[n+]1c2ccccc2cc2c1c1ccccc1n2CCCCCn1c2ccccc2c2c1cc1ccccc1[n+]2C (hydrate or solvate) [Compound 12],melting point,,238 to 240 °C
"C[C@@H]1[C@H](O)[C@@H](C)/C=C/C=C/C=C/C=C/C=C/C=C/C=C/[C@H](O[C@@H]2O[C@H](C)[C@@H](O)[C@H](N)[C@@H]2O)C[C@@H]2O[C@](O)(C[C@@H](O)C[C@@H](O)[C@H](O)CC[C@@H](O)C[C@@H](O)CC(=O)O[C@H]1C)C[C@H](O)[C@H]2C(=O)O [Amphotericin B, reference compound]",Cytotoxicity (Vero) TC50,Vero cells,6.5 µg/mL
same,IC50 Ck,C. krusei ATCC 6258,0.60 µg/mL
same,IC50 Af,[1],0.31 µg/mL
same,IC50 Cn,[2],0.6 µg/mL
same,IC50 Ca,[3],0.1 µg/mL
"C[C@@H]1CC[C@H]2[C@@H](C)C(=O)O[C@@H]3O[C@@]4(C)CC[C@@H]1[C@]32OO4 [Artemisinin, reference compound]",Cytotoxicity (Vero) TC50,Vero cells; African green monkey,>23.8 µg/mL
same,IC50,"[4]; W2 Clone, NA = Not active up to 20 μg/ml, read-out: Plasmodium falciparum IC50 Pf (W2)",0.0031 µg/mL
same,IC50,"[5]; D6 Clone, read-out: Plasmodium falciparum IC50 Pf (D6)",0.0085 µg/mL
"CCN(CC)CCCC(C)Nc1ccnc2cc(Cl)ccc12 (centres unmarked) [Chloroquine, reference compound]",Cytotoxicity (Vero) TC50,"Vero cells; Vero cells, NC = No Cytotoxicity observed up to 5 μg/ml",>23.8 µg/mL
same,IC50,"[4]; W2, read-out: Plasmodium falciparum IC50 Pf (W2)",0.075 µg/mL
same,IC50,"[5]; D6, read-out: Plasmodium falciparum IC50 Pf (D6)",0.017 µg/mL
"O=C(O)c1cn(C2CC2)c2cc(N3CCNCC3)c(F)cc2c1=O [Ciprofloxacin, reference compound]",IC50,[6],0.15 µg/mL
same,IC50,[7],0.2 µg/mL
same,IC50,[8],0.06 µg/mL
same,IC50,[9],0.1 µg/mL
